Patent publication US9603831B2, “Artemisinin and its derivatives for use in the treatment of kidney disease” (Queen Mary & Westfield College, University of London, priority 2012, dated 2017)

Experiments:
Type in all cases: in vivo
[1] = tested on: rats subjected to unilateral renal ischaemia/reperfusion; test: Late administration in a recovery rat model of unilateral renal ischaemia/reperfusion injury; conditions: 0.3 mg/kg i.v. 24 h into reperfusion, measured at 48 h reperfusion, mean±SEM, P<0.05
Method: Thirty-one male Wistar rats (240-270 g, Charles River, Margate, U.K.) were used in this study. Rats were anaesthetised with a ketamine (100 mg/ml) and xylazine (20 mg/ml) mixture (2:1; 1.5 ml/kg, i.p.) and anaesthesia was maintained by supplementary injections (200 μg/kg i.p.) of ketamine/xylazine. Buprenorphine was administered at a dose of 0.1 mg/kg s.c. (0.5 ml/kg). Rats were then, placed onto a thermostatically controlled heating mat (Harvard Apparatus Ltd., Kent, U.K.) set at 37° C. A midline laparotomy was then performed. The anatomical right kidney was removed following permanent ligation of the renal artery and vein. The left renal pedicle (consisting of the renal artery, vein and nerve) was isolated and clamped using a non-traumatic microvascular clamp at time 0 for 30 min. Body temperature was maintained at 35±1° C. during ischaemia by means of measuring rectal temperature with a thermometer. After 30 min of unilateral renal ischaemia, the clamp was removed to allow reperfusion for 48 h. […]
Following the reperfusion period, ˜3.5 ml of blood was taken from the right ventricle of the heart via cardiac puncture into non-heparinised 5 ml syringes and immediately decanted into 1.3 ml serum gel tubes (Sarstedt, Germany). […] All biochemical markers in serum and urine were measured in a blinded fashion by a commercial veterinary testing laboratory (IDEXX Ltd, West Sussex, UK). […] Creatinine clearance is used as an indicator of glomerular dysfunction and is calculated as follows
Fractional excretion of sodium is used as an indicator of tubular dysfunction and is calculated as follows: […]
All data in the text and figures are presented as mean±SEM of n observations, where n represents the number of animals studied. All statistical analysis was calculated using GraphPad Prism 6 (GraphPad Software, San Diego, Calif., USA). Biochemical data was analysed by one-way ANOVA for data representing more than two groups, followed by a Dunnett's post hoc test for comparison of sham/treated groups with the control vehicle. […]

[2] = tested on: rats subjected to haemorrhagic shock; test: Organ injury and dysfunction induced by trauma haemorrhage (haemorrhagic shock) in the rat; conditions: for rise in serum creatinine / rise in serum urea: 4 h after resuscitation; for rise in serum creatinine / rise in serum urea / rise in serum ALT / rise in serum AST / rise in serum creatinine kinase: vs HS-rats; for decline in MAP caused by haemorrhage during the resuscitation phase: vs HS Control
Method: Thirty-five male Wistar rats (271±5 g) were anaesthetised with sodium thiopentone (120 mg/kg i.p., LINK Pharmaceuticals Ltd., West Sussex, UK) and anaesthesia was maintained by supplementary injections (˜10 mg/kg i.v.) of sodium thiopentone as and when required. The animals were placed onto a thermostatically controlled heating mat (Harvard Apparatus Ltd., Kent, UK) and body temperature was maintained at 37±1° C. by means of a rectal probe attached to a homeothermic blanket. A tracheotomy was performed by inserting into the lumen of the trachea a small length of polyethylene tubing [Internal Diameter (ID) 1.67 mm, Portex, Kent, UK] to maintain airway patency and facilitate spontaneous respiration. […] The right carotid artery was cannulated (ID 0.58 mm, Portex) to facilitate the withdrawal of blood using a heparinised syringe. The right jugular vein was cannulated (ID 0.40 mm, Portex) for the administration of Ringer's Lactate (RL), shed blood, test compounds and/or vehicle. The bladder was also cannulated (ID 0.76 mm, Portex) for the collection of urine. Upon completion of the surgical procedure, cardiovascular parameters were allowed to stabilise for a period of 15 min.
After the stabilisation period, blood was withdrawn via the cannula inserted in the right carotid artery in order to achieve a fall in MAP to 35±5 mmHg within 10 min. From this point onwards, MAP was maintained at 35±5 mmHg for a period of 90 min either by further withdrawal of blood during the compensation phase (MAP rises following blood withdrawal due to sympathetic response) or administration of Ringer's Lactate i.v. during the decompensation phase (animals are unable to increase and maintain high MAP). […] At 90 min after initiation of haemorrhage, resuscitation was performed with 20 ml/kg Ringer's Lactate i.v. over a period of 10 min and then half the shed blood mixed with 100 u/ml heparinised saline i.v. over a period of 50 min. At the end of 1 h resuscitation, an i.v. infusion of Ringer's Lactate (1.5 ml/kg/h) was started as fluid replacement and maintained for a further 3 h.
Four hours after the onset of resuscitation, 1.2 ml blood was collected from the right carotid artery and decanted into serum gel tubes (Sarstedt, Numbrecht, Germany), after which the heart was removed to terminate the experiment. The samples were centrifuged (9900 rpm for 3 min) to separate serum from which urea, creatinine, aspartate aminotransferase (AST), alanine aminotransferase (ALT) and creatinine kinase (CK) were measured within 24 hours (Idexx Laboratories Ltd., West Yorkshire, UK). Urine collected during the last 3 h of the experiment was analysed for creatinine levels in order to estimate creatinine clearance as an indicator of glomerular dysfunction and was calculated as follows:
[formula] 1.4 Experimental Design
Rats were randomly allocated into the following groups: • (i) Sham (n=4) • (ii) HS Control (n=10) • (iii) HS+Artesunate 1 mg/kg (n=6) • (iv) HS+Artesunate 3 mg/kg (n=7) • (v) HS+Artesunate 10 mg/kg (n=8)
Sham-operated rats underwent identical surgical procedures but without haemorrhage or resuscitation. Animals received either 10% DMSO (1 ml/kg i.v.) or artesunate (1, 3 or 10 mg/kg i.v.) on resuscitation.
All values described in the text and figures are expressed as mean±standard error of the mean (SEM) for n observations. Each data point represents biochemical measurements obtained from up to 10 separate animals. Statistical analysis was carried out using GraphPad Prism 5.03 (GraphPad Software, San Diego, Calif., USA). Data without repeated measurements was assessed by one-way ANOVA followed by Dunnett's post hoc test. Data with repeated measurements was assessed by two-way ANOVA followed by Bonferroni's post hoc test. A P value of less than 0.05 was considered to be significant.

[3] = tested on: rats subjected to burn injury; test: Organ injury and dysfunction induced by burn injury in the rat; conditions: 3 mg/kg i.v. 30 min prior to and 30 min after burn injury, 6 h after burn
Method: Twenty-two male Wistar rats (Harlan, Udine, Italy) weighing 300 to 350 g were anaesthetised with sodium pentobarbital (Eutasil™, 60 mg/kg i.p.; Sanofi Veterinária, Algés, Portugal), which was supplemented as required. Anaesthetised rats were shaved (dorsum and abdomen) and placed onto a thermostatically controlled heating mat (Harvard Apparatus Ltd, Kent, U.K.) and body temperature maintained at 37±1° C. by means of a rectal probe attached to a homeothermic blanket. A tracheotomy was performed to maintain airway patency and to facilitate spontaneous respiration. Thirty minutes prior to burn injury, rats were treated with vehicle or drug, as described in section 3.2. To induce burn injury, a 60% third degree skin burn was induced by immersing dorsal shaved skin in 99° C. water for 10 s using a synthetic foam template. The rats were then dried and placed over the heating mat. Rats were sacrificed at 6 hours after burn injury by overdose of the anaesthetic and serum samples obtained for analysis of organ injury and dysfunction. Rats were randomly allocated into the following groups: • (i) Sham (n=4) • (ii) Burn+10% DMSO (n=10) • (iii) Burn+Artesunate (n=9) Sham-operated rats underwent identical surgical procedures but without burn injury (immersed in room temperature water). Animals received either 10% DMSO (1 ml/kg i.v.) or artesunate (3 mg/kg i.v.) 30 min prior to burn injury and 30 min after burn injury Each data point represents measurements obtained from up to 10 separate animals. Data was assessed using Mann-Whitney U test.

[4] = 1 mg/kg i.v. on resuscitation, P>0.05
[5] = 3 mg/kg i.v. on resuscitation, P<0.005
[6] = 3 mg/kg i.v. on resuscitation, P<0.05
[7] = 10 mg/kg i.v. on resuscitation, P<0.005
[8] = 10 mg/kg i.v. on resuscitation, P<0.05

C[C@H]1[C@H](OC(=O)CCC(=O)O)O[C@@H]2O[C@@]3(C)CC[C@H]4[C@H](C)CC[C@@H]1[C@@]24OO3 [artesunate]
fractional excretion of sodium ([1]; IRI+Vehicle 4.45±0.65): 1.90±0.17% | serum urea ([1]; IRI+Vehicle 34.13±2.23): 21.63 ± 1.51 mmol/L | serum creatinine ([1]; IRI+Vehicle 205.90±22.23): 115.4 ± 9.72 µmol/L | rise in serum creatinine [2, 4]: no significant effect | rise in serum urea [2, 4]: no significant effect | decline in MAP caused by haemorrhage during the resuscitation phase [2, 4]: failed to attenuate | rise in serum ALT [2, 4]: no significant effect | rise in serum AST [2, 4]: no significant effect | rise in serum creatinine kinase [2, 4]: no significant effect | rise in serum creatinine [2, 5]: significantly attenuated | rise in serum urea [2, 6]: significantly attenuated | decline in MAP caused by haemorrhage during the resuscitation phase ([2]; 3 mg/kg i.v. on resuscitation, P>0.05): failed to attenuate | rise in serum ALT [2, 5]: significantly attenuated | rise in serum AST [2, 6]: significantly attenuated | rise in serum creatinine kinase [2, 6]: significantly attenuated | rise in serum creatinine [2, 7]: significantly attenuated | decline in MAP caused by haemorrhage during the resuscitation phase ([2]; 10 mg/kg i.v. on resuscitation, P>0.05): failed to attenuate | rise in serum ALT [2, 7]: significantly attenuated | rise in serum AST [2, 8]: significantly attenuated | rise in serum creatinine kinase [2, 8]: significantly attenuated | rise in serum ALT ([3]; P>0.05): no significant effect | rise in serum AST ([3]; P>0.05): no significant effect | rise in serum creatinine ([3]; vs burn + vehicle, P<0.05): significantly attenuated | rise in serum urea ([3]; vs burn + vehicle, P<0.05): significantly attenuated
